Measurements as given in patent US20050215531A1, “Use of edg receptor binding agents in cancer” (priority 2002, published 2005).

Experiments:
[1] = system: mouse breast cancer cell line JygMC(A); experiment: In vitro antitumor activity: proliferation of synchronised mouse breast cancer cells; format: cell-based; settings: hydrochloride salt form, Coulter counter and SRB colorimetric assay
Method: A mouse breast cancer cell line originally isolated from mammary carcinomas is used, e.g. JygMC(A). The cell number is adjusted to 5×10^5 for plating in fresh medium before the procedure. Cells are incubated with fresh medium containing 2.5 mM of thymidine without FCS for 12 h and then washed twice with PBS, followed by addition of fresh medium with 10% FCS and additionally incubated for another 12 h. Thereafter the cells are incubated with fresh medium containing 2.5 mM of thymidine without FCS for 12 h. To release the cells from the block, the cells are washed twice with PBS and replated in fresh medium with 10% FCS. After synchronisation the cells are incubated with or without various concentrations of a compound of formula I for 3, 6, 9, 12, 18 or 24 h. The cells are harvested after treatment with 0.2% EDTA, fixed with ice-cold 70% ethanol solution, hydrolyzed with 250 μg/ml of RNaseA (type 1-A: Sigma Chem. Co.) at 37° C. for 30 mn and stained with propidium iodide at […] for 20 mn. After the incubation period, the number of cells is determined both by counting cells in a Coulter counter and by the SRB colorimetric assay. Under these conditions an S1P agonist, e.g. Compound B in hydrochloride salt form, inhibits the proliferation of the tumor cells at concentrations ranging from 10^−12 to 10^−6 M.

[2] = system: human A375 melanoma cells; experiment: In vivo antitumor activity, A375 melanoma transplanted into BALB/c-nu/nu mice; settings: hydrochloride salt form, 0.5 to 5 mg/kg, 2 week treatment
From the text: Antitumor activity is expressed as T/C% (mean increase in tumor volumes of treated animals divided by the mean increase of tumor volumes of control animals multiplied by 100).
Aliquots of cancer cells (1×10^7), e.g. human A375 melanoma cells, are transplanted into BALB/c-nu/nu mice. When the tumors have reached ca. 10×10 mm in size, the animals are assigned randomly to four subgroups and the treatment with a compound of formula I is initiated. Animals are sacrificed after 2 week treatment, at which times tumors and tissues are harvested and prepared for morphological and molecular analysis. The size of the tumors is determined with a caliper.

[3] = system: S1P- or VEGF-induced growth of vascularized tissue around the chamber; experiment: Antiangiogenic activity, subcutaneous porous chamber (S1P or VEGF) in mice; format: in vivo; settings: once a day for 4 days; Compound A orally 0.3, 3, 30 or 50 mg/kg; Compound C enantiomers i.v. 2.5 mg/kg
Method: Porous chambers containing (I) sphingosine-1-phosphate (5 μM/chamber) or (ii) human VEGF (1 μg/chamber) in 0.5 ml of 0.8% w/v agar (containing heparin, 20 U/ml) are implanted subcutaneously in the flank of mice. S1P or VEGF induces the growth of vascularized tissue around the chamber. This response is dose-dependent and can be quantified by measuring the weight and blood content of the tissue. Mice are treated once a day (i) orally with Compound A (0.3, 3, 30 or 50 mg/kg) or (ii) intravenously with the R enantiomer of Compound C (2.5 mg/kg) or (iii) intravenously with the S enantiomer of Compound C (2.5 mg/kg) or (iv) orally or intravenously with vehicle (5% glucose, 10 ml/kg), starting 4-6 hours before implantation of the chambers and continuing for 4 days. The animals are sacrificed for measurement of the vascularized tissues 24 h after the last dose. The weight and blood content of the vascularized tissues around the chamber is determined. Animals treated with Compound A or with the R or S enantiomer of Compound C show reduced weight and/or blood content of the vascularized tissues compared to animals treated with vehicle alone.

HUVEC = experiment: In vitro angiogenesis (tube formation) assay on Matrigel; format: cell-based, human
Method: (§1) Human umbilical vein endothelial cells (HUVEC) are cultured at 37° C. and 5% CO2 in medium M199 supplemented with 20% SCS (HyClone, Logan, Utah), 1 U/ml heparin, 50 μg/ml ECGS, 2 mM glutamine, 100 U/ml penicillin and 0.1 mg/ml streptomycin. Cells are used for experiments up to passage number 5. Short-starved HUVEC are obtained by starving with 1% SCS-containing M199 for 5 h. Recombinant human VEGF165 is obtained from PromoCell (Heidelberg, Germany). Phospho-specific ERK½, p3B kinase polyclonal antibodies, nonphospho ERK½ antibodies and LumiGLO chemiluminescent reagent are from New England BioLabs (Beverly, Mass.), polyclonal IKB antibodies from Santa Cruz Biotechnology (Santa Cruz, Calif.). Peroxidase-conjugated donkey anti-rabbit immunoglobulin G (IgG) and sheep anti-mouse IgG are purchased from Amersham LIFE SCIENCE (Amersham Place, England). lmmobilon-P transfer membranes are products of Millipore (Bedford, Mass.). S is obtained from Sigma Chemical Co.; S1P is from Biomol. Compound A-phosphate stock solution is prepared by the following protocol. Compound A-phosphate is dissolved in methanol tracing with concentrated HCl (0.5 mg Compound A-phosphate in 500 μl of methanol plus 2 μl of HCl). Solvent from the resulting solution is evaporated under vacuum and the residue obtained is redissolved (variant 1) in 0.1% of defatted BSA solution in sterile deionized water (500 μl) or (variant 2) in 0.5% Triton X-100 in deionized water. The resulting stock solutions (2.5 mM) are sonicated and stored at 4° C.
Morphogenesis of endothelial cells into capillary-like structures on Growth Factor Reduced Matrigel Matrix (BD Bioscience) is performed according to the manufacture procedure. Briefly, HUVEC are trypsinized, resuspended in serum-free Ml 99 medium containing soybean trypsin inhibitor (1 mg/ml, Sigma). After centrifugation cells are resuspended in serum-free medium at a density 0.5×10^5 cells/ml, and cell suspension is seeded in 96-well cell culture plates (Costar, Corning Incorporated) precoated with 50 μl of Matrigel in the absence or presence of various stimuli: VEGF at 1.5 nM, S1P at 0.1-2 μM, S at 0.5-2 μM, Compound A at 0.5-2 μM, and Compound A-phosphate at 0.1-2 μM. Eight hours later, cells on Matrigel are fixed with 3% formaldehyde in PBS and kept at 4° C. Results are quantitated from images made with a Nikon Diaphot microscope equipped with a cooled CCD camera (Kappa GmbH, Gleichen, Germany) by direct counting of branching points on two microscopic fields from each well done in duplicates.
The effect of Compound A and Compound A-phosphate on morphogenic differentiation of endothelial cells is determined using an in vitro angiogenesis assay on Matrigel. Endothelial cell morphogenesis is a complex process that requires cell-extracellular matrix interactions, followed by matrix remodelling, stimulated migration, cell-cell interactions, and perivascular proteolysis. […] This may be interpreted as a possible involvement of EDG-1 (S1P1) receptor-mediated signaling events in Compound A-phosphate-stimulated bioresponses (see e.g. FIG. 3). […] Importantly, high concentrations of S and Compound A (2-5 μM) inhibited VEGF-triggered tube formation.

ERK½ MAP kinases = experiment: Western blot, activation of ERK½ MAP kinases in HUVEC; format: cell-based, human; settings: endothelial cells, 5 minute to 60 minute treatment
Method: as §1
After various treatments, the cells are washed twice with cold PBS, lysed in 100 μl of Laemmli buffer, scraped and heated for 5 min at 95° C. Total cell lysates are separated by SDS-PAGE and transferred to Immobilon-P membrane. The membrane is blocked for 30 minutes with PBS containing 0.1% Tween-20 and 3% skim milk and incubated for 1 hour at RT with a primary antibody diluted in blocking buffer. The membrane obtained is washed three times for 5 minutes with PBS containing 0.1% Tween-20 and incubated with peroxidase-conjugated secondary antibody for 1 hour at RT. After a washing step, the membrane is incubated for 1 minute with ECL reagent and exposed to film as required. For reprobing with another antibody, the membrane is washed twice in PBS, stripped for 30 min at 55° C. with stripping buffer (62.5 mM Tris-HCL, pH 6.8, 2% SDS, 100 mM 2-mercaptoethanol) and washed three times for 5 minutes with PBS at RT. The membrane is stored wet wrapped in SaranWrap at 4° C. after each immunodetection.
Signal transduction via MAP idnases plays a key role in a variety of endothelial cell functions. Treatment of HUVEC with Compound A-phosphate at 0.5 μM may result in transient activation of ERK½ with a peak of phosphorylation/activation at 10 minutes and returning to baseline by 20 minutes (see e.g. FIG. 5). No activation of p38 kinase and JNK½ by Compound A-phosphate is detectable in HUVEC. […] To estimate the possible role of inflammatory/NFκB-dependent program in Compound A-phosphatestimulated bioresponses of endothelial cells, the membranes are reprobed with anti-IκB antibodies. IκB levels are not affected by Compound A-phosphate treatment.

tissue factor = experiment: Clotting assay, tissue factor activity on HUVEC; format: cell-based, human
Method: as §1
Cells are seeded in 6-well plates at 80-90% confluency and grown overnight. Cells are scraped from the plates and analyzed for tissue factor activity according to the method as described in Clauss, M., J. Biol. Chem. 271,17629-17634 (1996), Mechtcheriakova, D., Blood 93,3811-3823 (1999). Briefly, after induction for 4 hours with VEGF (1.5 nM), TNF-α (100 U/ml), S (0.5-2 μM), S1P (0.5-2 μM), Compound A (0.5-2 μM), and Compound A-phosphate (0.5-2 μM), cells are washed twice and then scraped in 1 ml clotting buffer (12 mM sodium acetate, 7 mM diethylbarbitate and 130 mM sodium chloride; pH 7.4). 50 μl of resuspended cells are mixed with 50 μl of citrated plasma, and clotting times are determined after recalcfication with 50 μl of 20 mM CaCl2 solution at 37° C. TF-equivalents are determined by using a standard curve obtained from rabbit brain thromboplastin.
An important characteristic feature of both classical inflammatory stimulus TNF-α and the main angiogenic growth factor VEGF on endothellal cells is their potency to upregulate tissue factor. Compound A, Compound A-phosphate, S or S1P are tested whether they also do induce tissue factor on HUVEC. […] The data obtained together indicate that Compound A, Compound A-phosphate, S and S1P mechanistically work distinctly to anglogenic VEGF and inflammatory TNF-α.

[4] = Acute toxicity p.o. in rats
[5] = Acute toxicity p.o. in monkeys

SMILES	concentrations at which the proliferation of the tumor cells is inhibited [1]	tumor growth vs saline control [2]	weight and/or blood content of the vascularized tissues compared to vehicle [3]	effect on capillary-like network formation (HUVEC; 0.5-1 μM)	effect on VEGF-mediated remodelling (HUVEC; 0.5-1 μM, with VEGF)	effect on VEGF-triggered tube formation (HUVEC; high concentrations, 2-5 μM)	MAP kinase activation (ERK½ MAP kinases)	effect on TNF-α-induced tissue factor (tissue factor; TNF-α 100 U/ml)	effect on VEGF-induced tissue factor (tissue factor; VEGF 1.5 nM)	tissue factor activity (tissue factor; compound alone or in combinations, 0.5-2 μM, 4 hours)	acute LD60 [4] [mg/kg]	acute LD60 [5] [mg/kg]
NC(CO)(CO)CCc1ccc(C(=O)CCCCc2ccccc2)cc1 [Compound B, 2-amino-2-{2-[4-(1-oxo-5-phenylpentyl)phenyl]ethyl}propane-1,3-diol]	10^−12 to 10^−6 M	slows tumor growth										
CCCCCCCCc1ccc(CCC(N)(CO)CO)cc1.Cl [Compound A, 2-amino-2-[2-(4-octylphenyl)ethyl]propane-1 ,3-diol]			reduced	weak, in comparison to Compound A-phosphate, but consistent enhancing effect	does not attenuate	inhibited	Neither Compound A nor S are able to induce MAP kinase activation	not TNF-α-induced	slightly enhance	none of these compounds alone or in combinations may elevate tissue factor activity	> 10	> 10
CCCCCCCOc1ccc(CCC(C)(N)CO)cc1 (stereo not drawn) [R enantiomer of Compound C, 2-amino-4-(4heptyloxyphenyl)-2-methyl-butanol]			reduced									
